Data on 13 molecules can be found in patent publication US11014904B2, “1,2,4-triazine-3-amine derivative, preparation method therefor, and use thereof in medicine” (Jiangsu Hengrui Medicine Co., Ltd., priority 2017, dated 2021).

Series [1] has as its target T1, adenosine A2a receptor (A2aR) (Homo sapiens, UniProt P29274).
T1 construct: expressed in transfected cells; host or cells: CHO-K1
Briefly: Inhibition of the adenosine A2a receptor cAMP signaling pathway in CHO-K1/A2aR cells (HTRF). The class given is cell-based. To be noted: for IC50: CHO-K1/A2aR cells, cAMP, Table 1. From the text:
(§1) Determination of the inhibition activity of the compounds of the present invention on the adenosine A2a receptor (A2aR) cAMP signaling pathway, the adenosine A2b receptor (A2bR) cAMP signaling pathway, the adenosine A1 receptor (A1R) cAMP signaling pathway and the adenosine A3 receptor (A3R) cAMP signaling pathway.
(§2) The inhibition activity of the compounds of the present invention on the adenosine A2a receptor (A2aR) cAMP signaling pathway, the adenosine A2b receptor cAMP signaling pathway, the adenosine A1 receptor cAMP signaling pathway and the adenosine A3 receptor cAMP signaling pathway was determined by the following method. The experimental method is briefly described as follows:
2.1 Adenosine A2a receptor
CHO-K1/A2aR cells were cultured in DMEM/F12 medium containing 10% fetal bovine serum and 800 μg/ml bleomycin. The cells were digested with the cell separation buffer during the experiment. The cells were resuspended in the balanced salt buffer containing 20 mM HEPES and 0.1% bovine serum albumin and counted, and the cell density was adjusted to 10^6 cells/ml. In the 384-well plate, each well was added with 5 μl of cell suspension, and 2.5 μl of test compound (4× concentration) formulated with the balanced salt buffer containing 20 mM HEPES, 0.1% bovine serum albumin, 54 μM rolipram and 2.7 U/ml adenosine deaminase, and the plate was incubated at room temperature for 30 minutes. Each well was then added with 2.5 μl of […] (4× concentration) formulated with the balanced salt buffer containing 20 mM HEPES, 0.1% bovine serum albumin, 54 μM rolipram and 2.7 U/ml adenosine deaminase, and the plate was incubated at room temperature for 30 minutes. The final concentrations of the compounds were: 10000, 2000, 400, 80, 16, 3.2, 0.64, 0.128, 0.0256, 0.00512, and 0.001024 nM. The final concentration of […] was 20 nM. Intracellular cAMP concentration was detected with the cAMP dynamic 2 kit. cAMP-d2 and Anti-cAMP-Eu-Cryptate were diluted respectively with the cAMP lysis buffer at a ratio of 1:4. Each well was added with 5 μl of diluted cAMP-d2, followed by addition of 5 μl of diluted Anti-cAMP-Eu-Cryptate, and the plate was incubated at room temperature in the dark for 1 hour. The HTRF signal values were read by the PHERAstar multi-function microplate reader.

The nature of series [2]: Pharmacokinetics assay in mice. The class given is in vivo. The note with it: mouse, po, C57 mice (female), intragastric, 2 mg/kg, plasma; for Vd/F: read-out: Apparent distribution volume Vz/F; for AUC: read-out: Area under curve AUC; for CL/F: read-out: Clearance CLz/F; for half-life: read-out: Half-life T½ (converted); for Cmax: read-out: Plasma concentration Cmax; for MRT: read-out: Residence time MRT. Here is the method:
Mice were used as test animals. The drug concentration in plasma at different time points was determined by LC/MS/MS method after intragastrical administration of the compounds of Examples 2, 3, 17, 18, 19, 20, 31 and 44 to mice. The pharmacokinetic behavior of the compounds of the present invention was studied and evaluated in mice.
Seventy-two C57 mice (female) were purchased from Shanghai Jiesijie Laboratory Animal Co., LTD, with Certificate No.: SCXK (Shanghai) 2013-0006, and equally divided into 8 groups (9 mice per group).
A certain amount of the test compound was weighed, and added with 5% by volume of DMSO, 5% by volume of tween 80 and 90% by volume of normal saline to prepare a 0.1 mg/mL colorless, clear and transparent solution.
After an overnight fast, C57 mice were administered intragastrically the test compounds at an administration dosage of 2.0 mg/kg and an administration volume of 0.2 mL/10 g.
The mice were intragastrically administered the compounds of Examples 2, 3, 17, 18, 19, 20, 31 and 44. 0.1 ml of blood was taken before administration and at 0.5, 1.0, 2.0, 4.0, 6.0, 8.0, 11.0 and 24.0 hours after administration. The samples were stored in heparinized tubes, and centrifuged for 10 minutes at 3,500 rpm to separate the blood plasma. The plasma samples were stored at −20° C.
The content of the test compounds in the plasma of mice after intragastrical administration of the test compounds at different concentrations was determined: 25 μL of mouse plasma at each time after administration were taken, added with 50 μL of the internal standard solution of camptothecin (100 ng/mL) and 200 μL of acetonitrile, vortex-mixed for 5 minutes, and centrifuged for 10 minutes (4000 rpm). 5 μL of the supernatant were taken from the plasma samples for LC/MS/MS analysis.

The target in series [3] is T2, adenosine A2b receptor (A2bR) (Homo sapiens, UniProt P29275).
T2 construct: expressed in transfected cells; host or cells: CHO-K1
T2 sequence (P29275 1-332): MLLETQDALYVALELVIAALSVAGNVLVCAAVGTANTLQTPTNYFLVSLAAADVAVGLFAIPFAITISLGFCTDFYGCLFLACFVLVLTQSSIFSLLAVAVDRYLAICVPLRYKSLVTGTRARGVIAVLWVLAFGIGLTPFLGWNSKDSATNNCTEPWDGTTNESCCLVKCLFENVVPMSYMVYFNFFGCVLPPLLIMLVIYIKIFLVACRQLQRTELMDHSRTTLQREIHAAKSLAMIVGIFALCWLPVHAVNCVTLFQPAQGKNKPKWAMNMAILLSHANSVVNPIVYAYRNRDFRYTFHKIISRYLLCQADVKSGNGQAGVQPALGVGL
Briefly: Inhibition of the adenosine A2b receptor cAMP signaling pathway in CHO-K1/A2bR cells (HTRF). The series is classed as cell-based. To be noted: ethyl carbazole 1 μM, Table 2.
From the text: as §1, §2
2.2 Adenosine A2b Receptor
CHO-K1/A2bR cells were cultured in DMEM/F12 medium containing 10% fetal bovine serum and 1 mg/ml G418. The cells were digested with the cell separation buffer during the experiment. The cells were resuspended in the balanced salt buffer containing 20 mM HEPES and 0.1% bovine serum albumin and counted, and the cell density was adjusted to 10^6 cells/ml. In the 384-well plate, each well was added with 5 μl of cell suspension, and 2.5 μl of test compound (4× concentration) formulated with the balanced salt buffer containing 20 mM HEPES, 0.1% bovine serum albumin, 54 μM rolipram and 2.7 U/ml adenosine deaminase, and the plate was incubated at room temperature for 30 minutes. Each well was then added with 2.5 μl of […] (4× concentration) (Torcis, 1691/10) formulated with the balanced salt buffer containing 20 mM HEPES, 0.1% bovine serum albumin, 54 μM rolipram and 2.7 U/ml adenosine deaminase, and the plate was incubated at room temperature for 30 minutes. The final concentrations of the compounds were: 100000, 10000, 1000, 100, 10, 1, 0.1 and 0 nM. The final concentration of […] was 1 μM. Intracellular cAMP concentration was detected with the cAMP dynamic 2 kit. cAMP-d2 and Anti-cAMP-Eu-Cryptate were diluted respectively with the cAMP lysis buffer at a ratio of 1:4. Each well was added with 5 μl of diluted cAMP-d2, followed by addition of 5 μl of diluted Anti-cAMP-Eu-Cryptate, and the plate was incubated at room temperature in the dark for 1 hour. The HTRF signal values were read by the PHERAstar multi-function microplate reader.
Background: TR-FRET usually uses a lanthanide donor and a delayed reading to cut background.

T1 sequence (P29274 whole entry): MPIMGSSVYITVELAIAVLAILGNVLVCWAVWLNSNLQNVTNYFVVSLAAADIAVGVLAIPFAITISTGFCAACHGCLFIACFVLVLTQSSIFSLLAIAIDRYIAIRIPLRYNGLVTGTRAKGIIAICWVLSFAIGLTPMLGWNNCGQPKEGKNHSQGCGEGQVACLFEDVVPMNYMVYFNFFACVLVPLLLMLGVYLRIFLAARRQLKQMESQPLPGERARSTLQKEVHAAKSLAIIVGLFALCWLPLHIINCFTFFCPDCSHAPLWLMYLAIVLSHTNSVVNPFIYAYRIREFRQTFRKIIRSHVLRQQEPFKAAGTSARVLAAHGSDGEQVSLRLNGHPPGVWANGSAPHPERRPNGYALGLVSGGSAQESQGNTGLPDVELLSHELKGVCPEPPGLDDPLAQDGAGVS

In series [1] (NECA 20 nM), `Nc1nnc(-c2cc(F)c3ncccc3c2)c(-c2ccccc2)n1` [Example 2, 6-(8-Fluoroquinolin-6-yl)-5-phenyl-1,2,4-triazin-3-amine] registered an IC50 of 0.6 nM. Besides, in series [2], the Vd/F was found to be 14.7 L/kg, the AUC was 412 ng·h/mL, the CL/F turned out to be 78.3 mL/min/kg and the half-life is 130 min. In series [2], the Cmax worked out at 441 ng/mL and the MRT came to 1.79 h.

For `Nc1nnc(-c2ccc3ncccc3c2)c(-c2ccccc2)n1` [Example 3, 5-Phenyl-6-(quinolin-6-yl)-1,2,4-triazin-3-amine], the IC50 in series [1] (NECA 20 nM) was determined as 0.7 nM. The “difference in inhibition activity on the adenosine A2a receptor versus Comparative Example 1” value in series [1] (compared with Comparative Example 1) is reported as 225 times. In series [2], the Vd/F is 15.7 L/kg, the AUC turned out to be 419 ng·h/mL, the CL/F was 78.6 mL/min/kg and the half-life was 138 min. In series [2], the Cmax came out at 395 ng/mL and the MRT came to 1.61 h. Further, half-maximal inhibition in series [3] (IC50) required 47 nM.

Regarding `Cc1ncnc2ccc(-c3nnc(N)nc3-c3ccccc3)cc12` [Example 15, 6-(4-Methylquinazolin-6-yl)-5-phenyl-1,2,4-triazin-3-amine], the IC50 in series [1] (NECA 20 nM) was 0.1 nM; in series [3] it was 7 nM.

Take `Cc1ccnc2c(F)cc(-c3nnc(N)nc3-c3ccccc3)cc12` [Example 16, 6-(8-Fluoro-4-methylquinolin-6-yl)-5-phenyl-1,2,4-triazin-3-amine]: the IC50 in series [1] (NECA 20 nM) came to 0.2 nM; in series [3], 18 nM.

Molecule `Cc1ccnc2ccc(-c3nnc(N)nc3-c3ccccc3F)cc12` [Example 17, 5-(2-Fluorophenyl)-6-(4-methylquinolin-6-yl)-1,2,4-triazin-3-amine] came in with an IC50 in series [1] (NECA 20 nM) of 0.5 nM. Also, in series [2], the Vd/F turned out to be 15.3 L/kg, the AUC worked out at 204 ng·h/mL, the CL/F was 162 mL/min/kg and the half-life was 65.4 min. Besides, in series [2], the Cmax is 265 ng/mL and the MRT came to 1.17 h. In series [3], this molecule showed a concentration for half-maximal inhibition (IC50) of 22 nM.

Molecule `Cc1ccnc2ccc(-c3nnc(N)nc3-c3ccc(F)cc3)cc12` [Example 18, 5-(4-Fluorophenyl)-6-(4-methylquinolin-6-yl)-1,2,4-triazin-3-amine] gave an IC50 in series [1] (NECA 20 nM) of 0.2 nM. Further, in series [2], the Vd/F was determined as 9.01 L/kg, the AUC was 495 ng·h/mL, the CL/F worked out at 65 mL/min/kg and the half-life was 95.4 min. In series [2], the Cmax was determined as 402 ng/mL and the MRT was 1.43 h.

With `Cc1ncnc2ccc(-c3nnc(N)nc3-c3ccc(F)cc3)cc12` [Example 19, 5-(4-Fluorophenyl)-6-(4-methylquinazolin-6-yl)-1,2,4-triazin-3-amine], the IC50 in series [1] (20 nM) was found to be 0.4 nM. In series [2], the Vd/F worked out at 1.57 L/kg, the AUC was determined as 5030 ng·h/mL, the CL/F turned out to be 6.61 mL/min/kg and the half-life is 164 min. For the same molecule, in series [2], the Cmax amounted to 1960 ng/mL and the MRT stood at 3.13 h. It took 25 nM to reach half-maximal inhibition in series [3] (IC50).

Consider `Cc1ccnc2c(F)cc(-c3nnc(N)nc3-c3ccc(F)cc3)cc12` [Example 20, 6-(8-Fluoro-4-methylquinolin-6-yl)-5-(4-fluorophenyl)-1,2,4-triazin-3-amine], for which, in series [1] (NECA 20 nM), the IC50 came out at 1.5 nM. Besides, in series [2], the Vd/F was determined as 3.05 L/kg, the AUC stood at 1170 ng·h/mL, the CL/F is 28 mL/min/kg and the half-life is 74.4 min. Also, in series [2], the Cmax was 866 ng/mL and the MRT amounted to 1.41 h.

For the molecule `[2H]C([2H])([2H])c1ccnc2ccc(-c3nnc(N)nc3-c3ccc(F)cc3)cc12` [Example 22, 5-(4-Fluorophenyl)-6-[4-(trideuteromethyl)-6-quinolinyl]-1,2,4-triazin-3-amine], the IC50 in series [1] (NECA 20 nM) is 0.3 nM; in series [3], 7 nM.

As to `Cc1ccnc2c(F)cc(-c3nnc(N)nc3-c3ccccc3F)cc12` [Example 31, 6-(8-Fluoro-4-methylquinolin-6-yl)-5-(2-fluorophenyl)-1,2,4-triazin-3-amine], it took 3.8 nM to reach half-maximal inhibition in series [1] (NECA 20 nM) (IC50). Moreover, in series [2], the Vd/F worked out at 16.7 L/kg, the AUC is 339 ng·h/mL, the CL/F was 95 mL/min/kg and the half-life was 121 min. For the same molecule, in series [2], the Cmax stood at 302 ng/mL and the MRT was 2.02 h.

In turn, `CCc1ccnc2ccc(-c3nnc(N)nc3-c3ccc(F)cc3)cc12` [Example 44, 6-(4-Ethylquinolin-6-yl)-5-(4-fluorophenyl)-1,2,4-triazin-3-amine] had an IC50 in series [1] (NECA 20 nM) of 0.8 nM. Also, in series [2], the Vd/F amounted to 4.79 L/kg, the AUC stood at 501 ng·h/mL, the CL/F came out at 65 mL/min/kg and the half-life was 51 min. Besides, in series [2], the Cmax is 720 ng/mL and the MRT worked out at 0.85 h.

`Cc1ncnc2c(F)cc(-c3nnc(N)nc3-c3ccccc3)cc12` [Example 45, 6-(8-Fluoro-4-methylquinazolin-6-yl)-5-phenyl-1,2,4-triazin-3-amine]: the IC50 amounted to 1.2 nM in series [1] (NECA 20 nM) and 25 nM in series [3].

With `[2H]C([2H])([2H])c1ncnc2ccc(-c3nnc(N)nc3-c3ccc(F)cc3)cc12` [Example 52, 5-(4-Fluorophenyl)-6-(4-(methyl-d3)quinazolin-6-yl)-1,2,4-triazin-3-amine], the figures for the IC50 in series [1] (20 nM) and in series [3] were 0.9 nM and 14 nM, respectively.

For orientation: IC50 means the concentration that gives 50% inhibition. A high value points to lower potency. The term AUC denotes concentration integrated over time. Usually half-life stands for the time in which the quantity being followed falls by half. The term MRT denotes the average time that molecules of a dose stay in the body.
